Test results reported in patent US8399662B2, “O-acyloxime derivatives, preparation method thereof, and pharmaceutical composition containing the same for prevention and treatment of cardiovascular disease” (Korea Research Institute of Bioscience and Biotechnology, priority 2004, dated 2013).

Columns and labels:
Lp-PLA2 = biological target: T1, Lp-PLA2 (Homo sapiens, UniProt Q13093); test: Measurement of Lp-PLA2 (PAF-AH) activity using [3H]PAF substrate and human LDL as enzyme source; assay type: biochemical; conditions: Lp-PLA2 from human LDL, average of two test results, read-out: Inhibition rate at 25 μM
T1 construct: LDL was isolated from the plasma by discontinuous density gradient ultra centrifugation; from tissue; host or cells: LDL fraction of human blood plasma from normal lipidemic volunteers
T1 sequence (Q13093 22-441): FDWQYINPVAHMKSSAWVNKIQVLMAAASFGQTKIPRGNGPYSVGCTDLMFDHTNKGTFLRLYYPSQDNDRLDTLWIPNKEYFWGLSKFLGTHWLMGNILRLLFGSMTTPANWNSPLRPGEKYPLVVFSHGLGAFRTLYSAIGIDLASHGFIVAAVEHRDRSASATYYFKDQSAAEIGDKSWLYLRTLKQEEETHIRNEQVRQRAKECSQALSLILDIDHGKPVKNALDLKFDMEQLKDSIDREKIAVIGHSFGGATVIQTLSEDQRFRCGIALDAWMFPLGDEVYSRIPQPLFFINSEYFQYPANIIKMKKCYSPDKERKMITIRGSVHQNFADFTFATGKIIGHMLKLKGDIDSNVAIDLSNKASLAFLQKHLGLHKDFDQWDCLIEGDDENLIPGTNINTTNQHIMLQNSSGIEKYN
Procedure: Blood was collected from normal lipidemic volunteers. EDTA was used as anticoagulant (1.5 mg/ml of blood). […] LDL was isolated from the plasma by discontinuous density gradient ultra centrifugation. Briefly, the plasma was centrifuged at 100,000×g at 4° C. for 20 hours. […] The LDL fraction in the top of the tube was collected and dialyzed overnight against three changes of phosphate buffer (pH 7.4), containing NaCl (150 mM), in the dark at 4° C. to remove NaBr and EDTA. The LDL in PBS was stored at 4° C. and used within 4 weeks. The purity of the fraction was confirmed by agarose gel electrophoresis and SDS-PAGE. Concentration of LDL protein was determined using bovine serum albumin (BSA) as a standard.
Lp-PLA2, the enzyme is also known as platelet-activating factor acetylhydrolase (PAF-AH), activity was measured using [^3H]PAF as a substrate. […] The reaction mixture, containing 20 μL of diluted human LDL (Lp-PLA2 source, 4-5 μg protein), 120 μL of PBS-EDTA, and 20 μL of test sample, was preincubated at 37° C. for 15 min. The reaction was initiated by the addition of 40 μL micelle substrate (0.1 μCi, final conc. 80 μM PAF) to measure initial rates of PAF-AH activity. […] The raw counts were corrected for background using a nonenzyme-containing blank and were expressed as nanomoles of PAF degraded per hour per milligram of protein.

in vivo = conditions: both, ICR, mouse, in vivo, po
Procedure: (§1) Specific pathogens free ICR mice of 4 weeks old (12 females and 12 males; 3 females and 3 males/dosage group) were raised in an animal chamber controlled with the temperature of 22±3° C., humidity of 55±10%, and illumination of 12L/12D cycle. The mice were acclimated for a week before the test. Feed for a test animal (CJ Corp., for mouse and rat) and water were supplied after sterilization and taken by the mice without any restriction.
(§2) The amount of 0.04 ml (100 mg/kg), 0.2 ml (500 mg/kg), and 0.4 ml (1,000 mg/kg) per mouse weight of 20 g was dosed individually to the mice by oral administration. The samples were dosed only one time, and adverse effect and mortality were observed during 7 days after the dosing as follows.
(§3) Additionally, on seventh day after the administration, the animals were sacrificed and dissected to examine internal organs with naked eye. Weight loss due to (E)-3,4-di-fluorobenzaldehyde O-benzoyloxime or (E)-2,3-di-fluorobenzaldehyde O-morpholine-4-carbonyloxime was observed by measuring weight changes at the intervals of 1 day since the dosage.

ICR mice = test: in vivo; conditions: single oral dose up to 1,000 mg/kg, ICR mice, 7 days
Procedure: as §1, §2, §3

Row | Compound | inhibition at 25 µM (Lp-PLA2) [%] | LD50 at 7 days (in vivo) [mg/kg] | toxicity (clinical symptoms, weight change, blood test, biochemical test of blood, necropsy) (ICR mice)
1 | O=C(O/N=C(\OC(=O)c1ccccc1)c1ccccc1)c1ccccc1 [Example 16, (E)-1-benzoic acid-benzaldehyde O-benzoyloxime] | 29 | – | –
2 | O=C(O/N=C/c1ccc(F)c(F)c1)c1ccccc1 [Example 21, (E)-3,4-di-fluorobenzaldehyde O-benzoyloxime] | – | > 1000 | –
3 | O=C(O/N=C/c1cccc(F)c1F)N1CCOCC1 [Example 30, (E)-2,3-di-fluorobenzaldehyde O-morpholine-4-carbonyloxime] | – | > 1000 | did not show any toxicity
